PMC8776063, “Aurora Kinase A Is Involved in Controlling the Localization of Aquaporin-2 in Renal Principal Cells” (International Journal of Molecular Sciences, 2022)
Where two headings read alike, the source gives them in different places.

Tests used:
AURKA = target: T1, AURKA (Homo sapiens, UniProt O14965); assay: Thermal shift assay; assay type: binding; details: read-out: ΔTm AURKA
T1 construct: purchased in-house thermal shift (DSF) kinase panel (SGC Frankfurt); Promega NanoBRET for AURKA/B/C
T1 sequence (O14965 122-403): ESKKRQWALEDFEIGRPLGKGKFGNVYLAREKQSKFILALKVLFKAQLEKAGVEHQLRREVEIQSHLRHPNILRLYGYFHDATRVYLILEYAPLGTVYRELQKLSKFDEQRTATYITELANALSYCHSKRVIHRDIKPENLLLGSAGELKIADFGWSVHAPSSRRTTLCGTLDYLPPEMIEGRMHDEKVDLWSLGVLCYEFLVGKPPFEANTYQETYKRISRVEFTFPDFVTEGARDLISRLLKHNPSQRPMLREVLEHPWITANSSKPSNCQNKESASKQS

PAK4 = target: T2, PAK4 (Homo sapiens, UniProt O96013); assay: Thermal shift assay; assay type: binding; details: read-out: ΔTm PAK4
T2 construct: purchased in-house thermal shift (DSF) kinase panel (SGC Frankfurt); Promega NanoBRET for AURKA/B/C

AKT3 = target: T3, AKT3 (Homo sapiens, UniProt Q9Y243); assay: Thermal shift assay; assay type: binding; details: read-out: ΔTm AKT3
T3 construct: purchased in-house thermal shift (DSF) kinase panel (SGC Frankfurt); Promega NanoBRET for AURKA/B/C

MAP2K1 = target: T4, MAP2K1 (Homo sapiens, UniProt Q02750); assay: Thermal shift assay; assay type: binding; details: read-out: ΔTm MAP2K1
T4 construct: purchased in-house thermal shift (DSF) kinase panel (SGC Frankfurt); Promega NanoBRET for AURKA/B/C

FGFR2 = target: T5, FGFR2 (Homo sapiens, UniProt P21802); assay: Thermal shift assay; assay type: binding; details: read-out: ΔTm FGFR2
T5 construct: purchased in-house thermal shift (DSF) kinase panel (SGC Frankfurt); Promega NanoBRET for AURKA/B/C

primary IMCD cells = assay: F-actin stress fiber staining (phalloidin); assay type: cell-based, rat; details: compound 20 µM, 1 h
AAK1 = target: T6, AAK1 (Homo sapiens, UniProt Q2M2I8); assay: Thermal shift assay; assay type: binding; details: read-out: ΔTm AAK1
T6 construct: purchased in-house thermal shift (DSF) kinase panel (SGC Frankfurt); Promega NanoBRET for AURKA/B/C

CDK2 = target: T7, CDK2 (Homo sapiens, UniProt P24941); assay: Thermal shift assay; assay type: binding; details: read-out: ΔTm CDK2
T7 construct: purchased in-house thermal shift (DSF) kinase panel (SGC Frankfurt); Promega NanoBRET for AURKA/B/C

MAPK1 = target: T8, MAPK1 (Homo sapiens, UniProt P28482); assay: Thermal shift assay; assay type: binding; details: compound 10 µM; n = 3
T8 construct: purchased in-house thermal shift (DSF) kinase panel (SGC Frankfurt); Promega NanoBRET for AURKA/B/C

GRK5 = target: T9, GRK5 (Homo sapiens, UniProt P34947); assay: Thermal shift assay; assay type: binding; details: read-out: ΔTm GRK5
T9 construct: purchased in-house thermal shift (DSF) kinase panel (SGC Frankfurt); Promega NanoBRET for AURKA/B/C

DYRK1A = target: T10, DYRK1A (Homo sapiens, UniProt Q13627); assay: Thermal shift assay; assay type: binding; details: read-out: ΔTm DYRK1A
T10 construct: purchased in-house thermal shift (DSF) kinase panel (SGC Frankfurt); Promega NanoBRET for AURKA/B/C

GAK = target: T11, GAK (Homo sapiens, UniProt O14976); assay: Thermal shift assay; assay type: binding; details: read-out: ΔTm GAK
T11 construct: purchased in-house thermal shift (DSF) kinase panel (SGC Frankfurt); Promega NanoBRET for AURKA/B/C
T11 sequence (O14976 14-351): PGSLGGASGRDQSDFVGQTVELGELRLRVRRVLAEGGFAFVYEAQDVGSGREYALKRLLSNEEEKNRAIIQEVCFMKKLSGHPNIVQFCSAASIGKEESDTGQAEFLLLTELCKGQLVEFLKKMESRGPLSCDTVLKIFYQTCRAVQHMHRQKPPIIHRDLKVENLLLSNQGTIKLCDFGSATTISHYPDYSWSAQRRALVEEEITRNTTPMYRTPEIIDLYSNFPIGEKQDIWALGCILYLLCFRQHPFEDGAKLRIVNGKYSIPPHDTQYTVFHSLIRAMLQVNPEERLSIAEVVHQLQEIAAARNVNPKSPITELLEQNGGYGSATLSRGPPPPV

MAPK8 = target: T12, MAPK8 (Homo sapiens, UniProt P45983); assay: Thermal shift assay; assay type: binding; details: read-out: ΔTm MAPK8
T12 construct: purchased in-house thermal shift (DSF) kinase panel (SGC Frankfurt); Promega NanoBRET for AURKA/B/C

BRAF = target: T13, BRAF (Homo sapiens, UniProt P15056); assay: Thermal shift assay; assay type: binding; details: read-out: ΔTm BRAF
T13 construct: purchased in-house thermal shift (DSF) kinase panel (SGC Frankfurt); Promega NanoBRET for AURKA/B/C

GSK3B = target: T14, GSK3B (Homo sapiens, UniProt P49841); assay: Thermal shift assay; assay type: binding; details: read-out: ΔTm GSK3B
T14 construct: purchased in-house thermal shift (DSF) kinase panel (SGC Frankfurt); Promega NanoBRET for AURKA/B/C

[1] = tested on: CFL1 phosphorylation in MCD4 cells; assay: CFL1 phosphorylation, Western blotting; assay type: cell-based, mouse; details: compound 30 µM, 1 h; for CFL1 phosphorylation: absence and presence of forskolin; for CFL1 phosphorylation in combination with forskolin: forskolin 30 µM, 30 min
ULK3 = target: T15, ULK3 (Homo sapiens, UniProt Q6PHR2); assay: Thermal shift assay; assay type: binding; details: read-out: ΔTm ULK3
T15 construct: purchased in-house thermal shift (DSF) kinase panel (SGC Frankfurt); Promega NanoBRET for AURKA/B/C
T15 sequence (Q6PHR2 1-277): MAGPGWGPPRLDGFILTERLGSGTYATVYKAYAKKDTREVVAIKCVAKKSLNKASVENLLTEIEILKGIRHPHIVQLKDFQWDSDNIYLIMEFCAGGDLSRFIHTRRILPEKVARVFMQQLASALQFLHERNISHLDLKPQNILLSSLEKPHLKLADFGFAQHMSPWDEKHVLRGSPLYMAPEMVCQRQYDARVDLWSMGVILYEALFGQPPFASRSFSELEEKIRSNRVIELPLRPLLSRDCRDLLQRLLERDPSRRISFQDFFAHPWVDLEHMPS

STK26 = target: T16, STK26 (Homo sapiens, UniProt Q9P289); assay: Thermal shift assay; assay type: binding; details: read-out: ΔTm STK26
T16 construct: purchased in-house thermal shift (DSF) kinase panel (SGC Frankfurt); Promega NanoBRET for AURKA/B/C

VRK1 = target: T17, VRK1 (Homo sapiens, UniProt Q99986); assay: Thermal shift assay; assay type: binding; details: read-out: ΔTm VRK1
T17 construct: purchased in-house thermal shift (DSF) kinase panel (SGC Frankfurt); Promega NanoBRET for AURKA/B/C
T17 sequence (Q99986 1-396): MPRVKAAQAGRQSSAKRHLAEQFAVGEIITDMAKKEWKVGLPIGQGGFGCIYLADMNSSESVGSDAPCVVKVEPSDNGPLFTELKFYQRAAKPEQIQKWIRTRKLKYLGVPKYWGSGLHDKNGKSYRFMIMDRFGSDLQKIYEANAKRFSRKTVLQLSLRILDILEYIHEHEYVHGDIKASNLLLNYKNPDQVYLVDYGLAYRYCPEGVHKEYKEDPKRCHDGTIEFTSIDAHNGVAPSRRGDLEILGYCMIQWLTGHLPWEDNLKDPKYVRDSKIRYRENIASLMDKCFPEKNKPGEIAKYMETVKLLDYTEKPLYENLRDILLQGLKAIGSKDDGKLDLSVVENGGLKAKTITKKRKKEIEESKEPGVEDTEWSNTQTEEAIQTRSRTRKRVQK

T12 sequence (P45983 1-364): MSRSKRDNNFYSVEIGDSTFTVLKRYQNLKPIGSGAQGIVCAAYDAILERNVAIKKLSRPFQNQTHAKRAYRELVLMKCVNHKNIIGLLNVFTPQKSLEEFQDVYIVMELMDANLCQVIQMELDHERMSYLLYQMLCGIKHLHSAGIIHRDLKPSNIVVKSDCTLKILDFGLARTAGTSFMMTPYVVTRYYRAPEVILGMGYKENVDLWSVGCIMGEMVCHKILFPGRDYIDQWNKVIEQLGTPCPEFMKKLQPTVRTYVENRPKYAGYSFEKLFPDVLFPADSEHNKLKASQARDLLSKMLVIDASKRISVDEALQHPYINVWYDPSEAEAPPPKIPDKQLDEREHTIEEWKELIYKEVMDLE
T5 sequence (P21802 458-768): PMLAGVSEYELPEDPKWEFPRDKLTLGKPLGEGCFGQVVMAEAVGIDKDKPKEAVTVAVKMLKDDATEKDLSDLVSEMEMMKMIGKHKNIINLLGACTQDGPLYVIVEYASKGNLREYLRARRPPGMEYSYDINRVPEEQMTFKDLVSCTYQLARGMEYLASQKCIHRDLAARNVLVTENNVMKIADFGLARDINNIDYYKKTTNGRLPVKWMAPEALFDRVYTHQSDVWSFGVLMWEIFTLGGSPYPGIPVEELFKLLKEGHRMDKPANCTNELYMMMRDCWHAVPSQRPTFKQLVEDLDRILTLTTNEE
T3 sequence (Q9Y243 148-479): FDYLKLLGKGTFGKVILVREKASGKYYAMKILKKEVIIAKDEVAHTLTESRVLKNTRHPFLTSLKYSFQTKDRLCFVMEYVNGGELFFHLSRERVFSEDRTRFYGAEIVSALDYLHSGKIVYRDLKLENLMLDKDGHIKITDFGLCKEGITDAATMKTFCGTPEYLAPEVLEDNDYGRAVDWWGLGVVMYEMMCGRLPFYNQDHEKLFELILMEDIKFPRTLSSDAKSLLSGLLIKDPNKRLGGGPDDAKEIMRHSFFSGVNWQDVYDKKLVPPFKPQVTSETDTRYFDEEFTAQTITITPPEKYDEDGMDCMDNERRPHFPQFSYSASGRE
T13 sequence (P15056 448-723): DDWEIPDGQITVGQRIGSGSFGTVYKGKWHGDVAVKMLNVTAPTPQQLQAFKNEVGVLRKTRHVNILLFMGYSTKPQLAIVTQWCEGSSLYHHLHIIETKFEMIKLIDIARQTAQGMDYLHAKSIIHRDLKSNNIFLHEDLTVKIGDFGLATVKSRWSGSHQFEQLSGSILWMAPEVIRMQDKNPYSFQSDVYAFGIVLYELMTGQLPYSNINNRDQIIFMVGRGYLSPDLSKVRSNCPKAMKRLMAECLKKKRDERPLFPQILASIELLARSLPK
T9 sequence (P34947 186-514): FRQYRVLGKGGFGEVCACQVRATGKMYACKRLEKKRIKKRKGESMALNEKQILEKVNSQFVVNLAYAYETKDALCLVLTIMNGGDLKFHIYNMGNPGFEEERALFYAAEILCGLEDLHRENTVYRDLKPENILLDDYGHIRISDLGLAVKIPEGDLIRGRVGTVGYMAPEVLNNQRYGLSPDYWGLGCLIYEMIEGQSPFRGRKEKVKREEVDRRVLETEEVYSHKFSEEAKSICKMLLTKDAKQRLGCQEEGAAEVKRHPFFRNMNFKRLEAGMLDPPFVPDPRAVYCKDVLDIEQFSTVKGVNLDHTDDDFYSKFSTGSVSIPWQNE
T4 sequence (Q02750 68-361): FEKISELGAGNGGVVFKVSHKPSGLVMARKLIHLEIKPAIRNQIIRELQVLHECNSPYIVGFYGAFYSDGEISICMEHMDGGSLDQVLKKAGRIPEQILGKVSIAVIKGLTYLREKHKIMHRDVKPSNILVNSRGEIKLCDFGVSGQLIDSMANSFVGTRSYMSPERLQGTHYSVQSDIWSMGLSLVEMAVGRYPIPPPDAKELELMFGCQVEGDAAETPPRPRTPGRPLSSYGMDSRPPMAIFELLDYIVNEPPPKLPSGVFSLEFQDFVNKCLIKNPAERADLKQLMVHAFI
T8 sequence (P28482 whole entry): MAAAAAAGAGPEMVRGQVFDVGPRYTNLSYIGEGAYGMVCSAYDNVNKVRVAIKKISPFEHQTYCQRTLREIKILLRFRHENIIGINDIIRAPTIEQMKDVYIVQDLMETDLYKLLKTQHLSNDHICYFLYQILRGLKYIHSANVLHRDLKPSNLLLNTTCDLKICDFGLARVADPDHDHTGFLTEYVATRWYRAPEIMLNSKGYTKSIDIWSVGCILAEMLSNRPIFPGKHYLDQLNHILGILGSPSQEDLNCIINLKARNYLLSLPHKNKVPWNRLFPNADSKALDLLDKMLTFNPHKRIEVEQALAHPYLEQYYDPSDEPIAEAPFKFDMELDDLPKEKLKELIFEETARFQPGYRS
T6 sequence (Q2M2I8 27-365): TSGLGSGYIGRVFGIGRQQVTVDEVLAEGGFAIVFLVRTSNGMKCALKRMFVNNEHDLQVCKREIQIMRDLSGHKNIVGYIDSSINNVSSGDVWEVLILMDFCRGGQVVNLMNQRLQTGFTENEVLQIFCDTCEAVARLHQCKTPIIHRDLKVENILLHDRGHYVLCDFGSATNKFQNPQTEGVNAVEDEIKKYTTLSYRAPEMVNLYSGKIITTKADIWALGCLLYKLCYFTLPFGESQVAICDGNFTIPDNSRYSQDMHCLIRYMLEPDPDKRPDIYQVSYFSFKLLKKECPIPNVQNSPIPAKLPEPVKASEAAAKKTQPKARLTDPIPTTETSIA
T2 sequence (O96013 291-591): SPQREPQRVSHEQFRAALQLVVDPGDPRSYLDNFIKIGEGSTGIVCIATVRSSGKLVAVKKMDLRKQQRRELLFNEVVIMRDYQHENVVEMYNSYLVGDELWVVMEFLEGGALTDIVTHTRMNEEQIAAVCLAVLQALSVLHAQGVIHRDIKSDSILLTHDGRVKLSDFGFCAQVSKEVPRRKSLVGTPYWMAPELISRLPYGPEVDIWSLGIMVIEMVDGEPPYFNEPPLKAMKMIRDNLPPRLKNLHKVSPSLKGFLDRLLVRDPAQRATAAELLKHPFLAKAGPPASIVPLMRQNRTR
T14 sequence (P49841 35-386): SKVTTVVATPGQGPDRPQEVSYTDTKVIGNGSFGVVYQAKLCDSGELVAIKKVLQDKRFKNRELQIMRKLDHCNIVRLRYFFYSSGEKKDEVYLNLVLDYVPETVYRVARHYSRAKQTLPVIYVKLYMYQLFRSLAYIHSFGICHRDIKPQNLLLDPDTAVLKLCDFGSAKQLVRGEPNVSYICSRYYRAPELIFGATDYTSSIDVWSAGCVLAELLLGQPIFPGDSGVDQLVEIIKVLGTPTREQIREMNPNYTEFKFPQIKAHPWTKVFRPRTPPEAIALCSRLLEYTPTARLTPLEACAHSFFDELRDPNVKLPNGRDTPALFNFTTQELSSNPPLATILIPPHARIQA
T16 sequence (Q9P289 1-300): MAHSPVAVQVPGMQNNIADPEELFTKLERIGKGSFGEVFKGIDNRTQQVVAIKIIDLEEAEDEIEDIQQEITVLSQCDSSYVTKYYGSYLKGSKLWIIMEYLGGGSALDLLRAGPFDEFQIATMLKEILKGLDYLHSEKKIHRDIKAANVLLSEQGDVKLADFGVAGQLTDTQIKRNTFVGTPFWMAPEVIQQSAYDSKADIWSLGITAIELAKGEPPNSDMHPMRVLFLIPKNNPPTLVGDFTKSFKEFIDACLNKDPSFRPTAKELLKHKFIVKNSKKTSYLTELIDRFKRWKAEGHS

| Structure (SMILES) | effect on actin stress fibers (primary IMCD cells) | ΔTm at 10 µM (MAPK1) [°C] | CFL1 phosphorylation [1] | CFL1 phosphorylation in combination with forskolin [1] | ΔTm at 10 µM (AURKA; compound 10 µM, n = 3) [°C] | ΔTm at 10 µM (PAK4; compound 10 µM, n = 3) [°C] | ΔTm at 10 µM (AKT3; compound 10 µM, n = 3) [°C] | ΔTm at 10 µM (MAP2K1; compound 10 µM, n = 3) [°C] | ΔTm at 10 µM (FGFR2; compound 10 µM, n = 3) [°C] | ΔTm at 10 µM (AAK1; compound 10 µM, n = 3) [°C] | ΔTm at 10 µM (CDK2; compound 10 µM, n = 3) [°C] | ΔTm at 10 µM (GRK5; compound 10 µM, n = 3) [°C] | ΔTm at 10 µM (DYRK1A; compound 10 µM, n = 3) [°C] | ΔTm at 10 µM (GAK; compound 10 µM, n = 3) [°C] | ΔTm at 10 µM (MAPK8; compound 10 µM, n = 3) [°C] | ΔTm at 10 µM (BRAF; compound 10 µM, n = 3) [°C] | ΔTm at 10 µM (GSK3B; compound 10 µM, n = 3) [°C] | ΔTm at 10 µM (ULK3; compound 10 µM, n = 3) [°C] | ΔTm at 10 µM (STK26; compound 10 µM, n = 3) [°C] | ΔTm at 10 µM (VRK1; compound 10 µM, n = 3) [°C] | also measured |
| --- | --- | --- | --- | --- | --- | --- | --- | --- | --- | --- | --- | --- | --- | --- | --- | --- | --- | --- | --- | --- | --- |
| CCN1CCN(C(=O)Cc2ccc(Nc3ncc(F)c(Nc4ccc(C(=O)Nc5ccccc5Cl)cc4)n3)cc2)CC1 [Aurora-A inhibitor I, reference compound] | depolymerization of actin stress fibers | 0.4 | significantly decreased | Significant additive effects |  |  |  |  |  |  |  |  |  |  |  |  |  |  |  |  | ΔTm at 10 µM (AURKA): 15.2 °C; ΔTm at 10 µM (PAK4): 0.8 °C; ΔTm at 10 µM (AKT3): 0.2 °C; ΔTm at 10 µM (MAP2K1): 0.2 °C; ΔTm at 10 µM (FGFR2): 2.5 °C; ΔTm at 10 µM (AAK1): 2.3 °C; ΔTm at 10 µM (CDK2): 1.4 °C; ΔTm at 10 µM (GRK5): 0.2 °C; ΔTm at 10 µM (DYRK1A): 0.4 °C; ΔTm at 10 µM (GAK): 5 °C; ΔTm at 10 µM (MAPK8): 3.7 °C; ΔTm at 10 µM (BRAF): 1.1 °C; ΔTm at 10 µM (GSK3B): 3.1 °C; ΔTm at 10 µM (ULK3): 7.6 °C; ΔTm at 10 µM (STK26): 0.6 °C; ΔTm at 10 µM (VRK1): 0.4 °C |
| O=C(Cc1ccc(Nc2ncc(F)c(Nc3ccc(C(=O)Nc4ccccc4Cl)cc3)n2)cc1)NCCN1CCOCC1 [ERJ2-04] | Comparable effects | 0.3 |  | Significant additive effects | 13 | 0.3 | -0.1 | 0 | 1.5 | 4.4 | 0.7 | 0.2 | -0.7 | 4.5 | 3.2 | 0.8 | 2 | 6.2 | 0.4 | 0.3 |  |
| NC(=O)Cc1ccc(Nc2ncc(F)c(Nc3ccc(C(=O)Nc4ccccc4Cl)cc3)n2)cc1 [ERJ2-06] | Comparable effects | 0.1 |  | Significant additive effects | 15.5 | 0.3 | 0.1 | 0 | 2.4 | 6.8 | 4.1 | 0 | 0.8 | 5.1 | 3.7 | 0.5 | 3.1 | 9.4 | 1.7 | 0.2 |  |
| CCN1CCN(C(=O)Cc2ccc(Nc3ncc(F)c(Nc4ccc(C(=O)Nc5ccccc5)cc4)n3)cc2)CC1 [ERJ2-11] | promoted or maintained the formation of actin stress fibers | -0.1 |  | Significant additive effects | 13.8 | 1.1 | 0.1 | 0 | 2.9 | 7.3 | 2.6 | 0.2 | -0.6 | 4.9 | 3.8 | 1.8 | 3.6 | 9.8 | 1.3 | 0.1 |  |
| CCN1CCN(C(=O)Cc2ccc(Nc3ncc(F)c(Nc4ccc(C(=O)O)cc4)n3)cc2)CC1 [ERJ2-12] | resembled those of the control cells | -0.1 | no effect |  | 9.5 | 0.1 | -0.1 | -0.1 | 2.9 | 3.8 | 0.4 | 0.2 | -1.3 | 2.7 | 4.2 | 0.7 | 1 | 4.3 | -0.2 | 0.1 |  |
